From patent US12295997B2, “Prostate neoantigens and their uses” (Janssen Biotech, Inc., priority 2020, dated 2025)

Tested on: CD8+ and CD4+ T cells (autologous CD3+ Pan-T cells isolated from human normal PBMCs)
Assay: Exogenous autologous normal donor restimulation assay (15-mer overlapping peptide pools on CD1c+ dendritic cells, TNFα/IFNγ flow cytometry)
Assay type: cell-based
Conditions: 15-mer overlapping peptide pool; for Max. Fold Change over background CD4+ TNFαINFγ double positive DP / Max. Fold Change over background CD8+ TNFαINFγ double positive DP / Max. Frequency of CD4+ TNFαINFγ DP / Max. Frequency of CD8+ TNFαINFγ DP: Table 28, additional neoantigens, highest across normal donors; for Maximum Fold Change Over Background CD4+ cells / Maximum Fold Change Over Background CD8+ cells / Maximum Frequency of TNFα/IFNγ Double Positive CD4+ T cells / Maximum Frequency of TNFα/IFNγ Double Positive CD8+ T cells: Table 25; for Maximum Fold Change Over Background CD4+ cells: TNFα+IFNγ+ CD4+ T cells; for Maximum Fold Change Over Background CD4+ cells / Maximum Fold Change Over Background CD8+ cells: highest fold change over negative control across normal donors; for Maximum Fold Change Over Background CD8+ cells: TNFα+IFNγ+ CD8+ T cells; for Maximum Frequency of TNFα/IFNγ Double Positive CD4+ T cells / Maximum Frequency of TNFα/IFNγ Double Positive CD8+ T cells: highest frequency across normal donors
Procedure: CD1c+ Dendritic Cells (DC) isolated from human normal PBMCs were thawed using media (IMDM (Gibco) supplemented with glutamine, HEPES, 5% human serum (Sigma), and 1× Pen-Strep). DC cells were resuspended in media supplemented with IL-4 (Peprotech, 80 ng/mL) and GM-CSF (Gibco, 80 ng/mL), plated in 6 well microplates, and rested overnight at 37° C. (5% CO2). The following day, DC cells were counted and plated in a 96 well round bottom microplate at a concentration of 30,000 viable cells per well. Lyophilized peptides (15-mer overlapping peptides) were solubilized in 100% DMSO and pooled by neoantigen to between 5 mg/mL and 20 mg/mL. Neoantigen peptides pools were added to DCs for a final concentration of […] and rested for 2 hours at 37° C. (5% CO2). CEF Peptide Pool “Plus” (Cellular Technologies, Ltd.) was utilized as a positive control and DMSO at the same final concentration as the experimental peptides was utilized as a negative control. After 2 hours, DC cells were irradiated with 50 gray of ionizing radiation. Autologous CD3+ Pan-T cells isolated from human normal PBMCs were thawed using media. Following irradiation, autologous Pan-T cells were added to the irradiated DCs at 300,000 viable cells per well. Human IL-15 (Peprotech) was added to all wells at final concentration of 10 ng/mL.
Plates were incubated at 37° C. (5% CO2) for a total of 12 days. Media was refreshed every 2-3 days with IL-15 (10 ng/mL final concentration) and IL-2 (R&D systems, 10 IU/mL final concentration). On day 11 cells were re-stimulated with identical experimental peptide pools or controls, at same concentration as peptide stimulation on Day 1. Protein Inhibitor Cocktail (eBioscience) was added to every well and plate was incubated overnight at 37° C. (5% CO2).
On day 12, cells were stained for intracellular flow cytometry analysis. The cells were washed with PBS and stained with Live/Dead Fixable Aqua Dead Cell stain (Thermo-Fisher). Following the live/dead stain, cells were blocked using Biotin-Free Fc Receptor Blocker (Accurate Chemical & Scientific Corp). Extracellular cellular flow panel (1 μL/antibody per well in 50 μL) consisted of CD3 PerCP-Cy5.5 (Biolegend), CD4 BV421 (Biolegend), and CD8 APC-Cy7 (Biolegend). After extracellular staining, cells were fixed using Foxp3/fTranscription Factor Staining Buffer Set (eBioscience) and stained for intracellular proteins (1:50 dilution) using TNFα FITC (R&D Systems) and IFNγ BV785 (Biolegend). Cells were washed and resuspended in stain buffer and analyzed using a BD Celesta flow cytometer.
Flow cytometry cell staining analysis was completed using FlowJo v10. Cells were gated on live, singlet, CD3+ cells. The CD8+ and CD4+ T cells were analyzed for TNFα/IFNγ expression and the frequency of double positive TNFα/IFNγ CD8+ and the frequency of double positive TNFα/IFNγ CD4+ T cells were recorded. Responses were assessed to be positive when the frequency of double positive TNFα/IFNγ CD8+ or TNFα/IFNγ CD4+ T cells due to stimulation with an experimental peptide pool was increased greater than or equal to 3-fold over the DMSO only negative control for that donor and at least 0.01%.
(§1) Overlapping 15-mer peptides were designed to span each neoantigen incorporated into NeoGAd20 and NeoMVA to assess their ability to activate T cells using the exogenous autologous normal donor restimulation assay described in Example 1 as pools using TNFα and IFNγ production by CD8^+ and CD4^+ T cells as a readout.
as §1, with “Immunogenicity of various additional identified neoantigens was assessed. Overlapping” for “Overlapping”, “similarly to what was done in Example 11” for “incorporated into NeoGAd20 and NeoMVA”

| Substance | Max. Fold Change over background CD4+ TNFαINFγ double positive DP | Max. Fold Change over background CD8+ TNFαINFγ double positive DP | Max. Frequency of CD4+ TNFαINFγ DP | Max. Frequency of CD8+ TNFαINFγ DP | Maximum Fold Change Over Background CD4+ cells | Maximum Fold Change Over Background CD8+ cells | Maximum Frequency of TNFα/IFNγ Double Positive CD4+ T cells | Maximum Frequency of TNFα/IFNγ Double Positive CD8+ T cells |
| --- | --- | --- | --- | --- | --- | --- | --- | --- |
| ENSGNASRWLHVPSSSDDWLGWKKSSAITSNS (listed as Homo sapiens) [AS50, LRIF1 alternative splicing] | 17.22 | 1.6 | 0.07 | 0.12 |  |  |  |  |
| GMECTLGQVGAPSPRREEDGWRGGHSRFKADVPAPQGPCWGGQPGSAPSSAPPEQSLLD (listed as Homo sapiens) [AS51, CPNE7 alternative splicing] |  |  |  |  | 8.75 | 33.13 | 0.140 | 0.530 |
| QWQHYHRSGEAAGTPLWRPTRN (listed as Homo sapiens) [AS19, NWD1 alternative splicing] |  |  |  |  | 2.59 | 5.87 | 0.1 | 0.63 |
| DCMLSEEGGQARRGGSLCSLAAHTIASAARGRFLSRLSNFCAVVKASRGAPSCTWE (listed as Homo sapiens) [AS40, LRRC45 alternative splicing] | 15.34 | 178.52 | 0.89 | 2.41 |  |  |  |  |
| PVPTATPGVRSVTSPQGLGLFLKFI (listed as Homo sapiens) [AS9, CACNA1D alternative splicing] | 4.18 | 3.81 | 0.16 | 0.12 |  |  |  |  |
| KEQILAVASLVSSQSIHPSWGQSPLSRI (listed as Homo sapiens) [FUS9, AP5S1->MAVS gene fusion] | 203.97 | 1.82 | 0.77 | 0.07 |  |  |  |  |
| IARELHQFAFDLLIKSH (listed as Homo sapiens) [Neoantigen M84, AR T878A] |  |  |  |  | 35.84 | 1.39 | 0.31 | 0.03 |
| DGFSGSLFAVVTRRCYFLKWRTIFPQSLMWL (listed as Homo sapiens) [FUS18, OPN3->CHML gene fusion] | 31.76 | 42.33 | 0.04 | 0.91 |  |  |  |  |
| DYWAQKEKGSSSFLRPSC (listed as Homo sapiens) [AS7, ACSM1 alternative splicing] |  |  |  |  | 2.50 | 52.60 | 0.045 | 2.630 |
| VETLENANSFSSGIQPLLCSLIGLENPT (listed as Homo sapiens) [AS58, CREB3L1 alternative splicing] | 6.27 | 4.54 | 0.24 | 0.6 |  |  |  |  |
| FARKMLEKVHRQHLQLSHNSQE (listed as Homo sapiens) [AS12, EVPL alternative splicing] | 7.32 | 6.03 | 0.28 | 0.19 |  |  |  |  |
| KRSFAVTERII (listed as Homo sapiens) [AS13, GRIN3A alternative splicing] |  |  |  |  | 1.96 | 1.67 | 0.05 | 0.10 |
| MS2 (TDIVKQSV; listed as Homo sapiens) | 15.12 | 36.92 | 0.1 | 0.48 |  |  |  |  |
| MS11 (GSLHFHEVLK; listed as Homo sapiens) | 3.4 | 3.81 | 0.13 | 0.12 |  |  |  |  |
| GEVELSEGGEGQRHLAFPWACSGPGWRGVCCAAVEPA (listed as Homo sapiens) [AS32, TONSL alternative splicing] | 2.04 | 3.81 | 0.08 | 0.12 |  |  |  |  |
| KWNKNWTATLGALTIRGHKLLCHLPHLLSSVQQTCRSSSR (listed as Homo sapiens) [AS46, SERINC5 alternative splicing] | 157.98 | 11.6 | 0.29 | 0.87 |  |  |  |  |
| LQERMELLACGAERGAGGWGGGGGGGGGDRRGGGGSAPALADFAGGRG (listed as Homo sapiens) [FUS24, DMPK->SIX5 gene fusion] | 4.4 | 8.53 | 0.05 | 0.64 |  |  |  |  |
| MFLRKEQQVGPHSFSML (listed as Homo sapiens) [AS14, IQCG alternative splicing] | 1.49 | 3.81 | 0.06 | 0.12 |  |  |  |  |
| AGAGTISEGSVLHGQRLECDARRFFGCGTTILAEWEHH (listed as Homo sapiens) [AS59, ACSL3 alternative splicing] | 59.58 | 4.22 | 0.3 | 0.08 |  |  |  |  |
| P97 (GYLRMQGLMAQRLLLR; listed as Homo sapiens) [Neoantigen P97] | 3.14 | 7.47 | 0.12 | 1.11 |  |  |  |  |
| PEPRRLSPGEPRGRPRKGWGIWGLCGARVGPKAWR (listed as Homo sapiens) [AS42, SLC39A4 alternative splicing] | 24.58 | 4.65 | 0.59 | 0.69 |  |  |  |  |
| MS5 (EFSPETCAFRLS; listed as Homo sapiens) | 126.05 | 32.89 | 0.2 | 1.95 |  |  |  |  |
| ENASLVFTGSNSPIPACELSSHPAHGISPWIPSPGNEHFHGIKKQVKAIKVE (listed as Homo sapiens) [AS48, SYT17 alternative splicing] | 13.45 | 9.21 | 0.13 | 0.29 |  |  |  |  |
